Test results as given in ChEMBL document CHEMBL5390230, “Imidazole-based sphingosine-1-phosphate transporter Spns2 inhibitors” (Bioorg Med Chem Lett, 2023).

target: T1, Sphingosine-1-phosphate transporter SPNS2 (Homo sapiens) (UniProt Q8IVW8); experiment: Inhibition of Spns2 in human HeLa cells assessed as decrease in extracellular S1P level at 3 uM by LC/MS analysis relative to control; assay type: cell-based
T1 sequence (whole entry): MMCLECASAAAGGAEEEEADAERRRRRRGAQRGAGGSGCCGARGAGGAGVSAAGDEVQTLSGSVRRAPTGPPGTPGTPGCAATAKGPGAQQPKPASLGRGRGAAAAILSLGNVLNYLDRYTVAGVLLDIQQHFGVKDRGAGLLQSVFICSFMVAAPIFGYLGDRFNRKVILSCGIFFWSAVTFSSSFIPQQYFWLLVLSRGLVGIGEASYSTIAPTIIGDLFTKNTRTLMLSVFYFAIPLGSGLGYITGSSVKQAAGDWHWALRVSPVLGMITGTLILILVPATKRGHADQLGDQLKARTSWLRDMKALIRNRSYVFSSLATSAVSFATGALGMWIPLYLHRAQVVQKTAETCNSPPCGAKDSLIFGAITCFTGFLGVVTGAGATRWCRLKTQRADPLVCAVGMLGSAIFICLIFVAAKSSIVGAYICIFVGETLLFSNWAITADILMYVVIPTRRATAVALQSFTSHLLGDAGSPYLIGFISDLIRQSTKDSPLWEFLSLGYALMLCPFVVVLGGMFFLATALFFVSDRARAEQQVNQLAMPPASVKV

First: CCCCCCCCCCc1nc(-c2ccc(-n3cc[n+](C)c3)cc2)no1
Second: CCCCCCCCCCCc1nc(-c2ccc(-n3cc[n+](C)c3)cc2)no1
The inhibition of the first is higher: 41% for the first, 3% for the second.

Going from `CCCCCCCCCCc1nc(-c2ccc(-n3ccnc3)cc2)no1` to `CCCCCCCCCCCc1nc(-c2ccc(-n3ccnc3)cc2)no1`, the inhibition falls from 33% to 25%.

First: CCCCCCCc1nc(-c2ccc(-n3cc[n+](C)c3)cc2)no1
Second: CCCCCCCCc1nc(-c2ccc(-n3cc[n+](C)c3)cc2)no1
The inhibition of the first is lower: 0% for the first, 26% for the second.

Compared with `CCCCCCCCc1nc(-c2ccc(-n3ccnc3)cc2)no1`, `CCCCCCCCCc1nc(-c2ccc(-n3ccnc3)cc2)no1` is higher in inhibition: 22% for the first, 28% for the second.

Going from `CCCCCCCCCc1nc(-c2ccc(-n3cc[n+](C)c3)cc2)no1` to `CCCCCCCc1nc(-c2ccc(-n3ccnc3)cc2)no1`, the inhibition falls from 47% to 12%.

target: T2, Sphingosine-1-phosphate transporter SPNS2 (Homo sapiens, UniProt Q8IVW8); experiment: Inhibition of Spns2 in human HeLa cells decrease in extracellular S1P level by LC/MS method; assay type: cell-based
T2 sequence (Q8IVW8 whole entry): T1 sequence (whole entry)

Going from `CCCCCCCCCCc1ccc(-c2cn(CC)c(CCCN)n2)cc1` to `CCCCCCCCCCc1ccc(-c2cn(C)c(CCCN)n2)cc1`, the IC50 rises from 1400 nM to 2820 nM (2-fold). The first is the more potent here.

target: T1, Sphingosine-1-phosphate transporter SPNS2 (Homo sapiens); experiment: Inhibition of Spns2 in human HeLa cells assessed as decrease in extracellular S1P level at 2 uM by LC/MS analysis relative to control; assay type: cell-based

First: CCCCCCCCCCc1ccc(-c2cn(CC(N)=O)c(CCCN)n2)cc1
Second: CCCCCCCCCCc1ccc(-c2cn(CC)c(CCCN)n2)cc1
The inhibition of the first is lower: 10% for the first, 51% for the second.

Compared with `CCCCCCCCCCc1ccc(-c2cn(CCC)c(CCCN)n2)cc1`, `CCCCCCCCCCc1ccc(-c2cn(CCCOC)c(CCCN)n2)cc1` is higher in inhibition: 7% for the first, 11% for the second.

Going from `CCCCCCCCCCc1ccc(-c2cn(CC(=O)OC(C)C)c(CCCN)n2)cc1` to `CCCCCCCCCCc1ccc(-c2cn(C)c(CCCN)n2)cc1`, the inhibition rises from 27% to 51%.

With `CCCCCCCCCCc1ccc(-c2noc(CCCN)n2)cc1` the inhibition was 67%.
